Experiments:
Format in all cases: in vivo
[1] = test system: redroot pigweed (Amaranthus retroflexus, AMARE); experiment: Pre-emerge test, greenhouse herbicide activity screening; details: rated 14 days after application, 0 = no damage, 100 = complete death
In short: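 Compounds in acetone were track-sprayed at 187 l/ha, 15–1000 g ai/ha, onto sandy loam pots. Pre-emerge seeds were sown one day before spraying, with surface watering afterwards. Post-emerge plants were at the 2–3 leaf stage and sprayed with 0.25% v/v non-ionic surfactant. Injury was rated 0–100 at 14 days.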

[2] = test system: field corn (Zea mays L., var. Dekalb 535, CORN); experiment: Pre-emerge test, crop safety; details: rated 14 days after application, 0 = no damage, 100 = complete death
In short: (§1)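 Rating: 0–100 visual injury, 14 DAA. Application: acetone, 187 l/ha, 15–1000 g ai/ha, flat-fan track sprayer with nozzle 40–45 cm above soil or canopy. Post-emerge runs used 0.25% v/v surfactant on 2–3 leaf plants.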

[3] = test system: upland rice (Oryza sp., var. Tebonnet, RICE); experiment: Pre-emerge test, crop safety; details: rated 14 days after application, 0 = no damage, 100 = complete death
In short: as §1

[4] = test system: velvetleaf (Abutilon theophrasti, ABUTH); experiment: Post-emerge test, greenhouse herbicide activity screening; details: post-emerge, 14 days after application, rating scale 0-100
In short: (§2)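 Compounds in acetone were track-sprayed at 15–1000 g ai/ha: pre-emergence onto soil sown the previous day, then top-watered to incorporate and later bottom-watered; post-emergence onto 2–3 leaf plants with 0.25% v/v surfactant, bottom-watered only. Ratings on a 0–100 phytotoxicity scale were taken at day 14.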

[5] = test system: common ragweed (Ambrosia artemisizfolia L., AMBEL); experiment: as above; details: post-emerge, 14 days after application, rating scale 0-100
In short: as §2

[6] = test system: sicklepod (Cassia obtusifolia, CASOB); experiment: as above; details: post-emerge, 14 days after application, rating scale 0-100
In short: as §2

[7] = test system: barnyardgrass (Echinochloa crus-galli, ECHCG); experiment: as above; details: post-emerge, 14 days after application, rating scale 0-100
In short: as §2

[8] = test system: lambsquarters (Chenopodium album, CHEAL); experiment: as above; details: post-emerge, 14 days after application, rating scale 0-100
In short: as §2

[9] = test system: ivyleaf morningglory (Ipomoea hederacea, IPOHE); experiment: as above; details: post-emerge, 14 days after application, rating scale 0-100
In short: as §2

[10] = test system: johnsongrass (Sorghum halepense, SORHA); experiment: as above; details: post-emerge, 14 days after application, rating scale 0-100
In short: as §2

[11] = test system: redroot pigweed (Amaranthus retroflexus, AMARE); experiment: as above; details: post-emerge, 14 days after application, rating scale 0-100
In short: as §2

[12] = test system: green foxtail (Setaria viridis, SETVI); experiment: as above; details: post-emerge, 14 days after application, rating scale 0-100
In short: as §2

[13] = test system: large crabgrass (Digitaria sanguinalis, DIGSA); experiment: as above; details: post-emerge, 14 days after application, rating scale 0-100
In short: as §2

[14] = test system: field corn (Zea mays L., var. Dekalb 535, CORN); experiment: Post-emerge test, crop safety; details: post-emerge, 14 days after application, rating scale 0-100
In short: (§3)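 Herbicidal damage is scored 0 (none) to 100 (complete plant death) two weeks after a simulated field spray. Rates span 15–1000 g ai/ha, delivered in acetone at 187 l/ha. For post-emergence treatments, plants have 2–3 leaves and the spray carries 0.25% v/v non-ionic surfactant.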

[15] = test system: upland rice (Oryza sp., var. Tebonnet, RICE); experiment: Post-emerge test, crop safety; details: post-emerge, 14 days after application, rating scale 0-100
In short: as §3

[16] = test system: velvetleaf (Abutilon theophrasti, ABUTH); experiment: Pre-emerge test, greenhouse herbicide activity screening; details: rated 14 days after application, 0 = no damage, 100 = complete death
In short: as §3

[17] = test system: common ragweed (Ambrosia artemisizfolia L., AMBEL); experiment: as above; details: rated 14 days after application, 0 = no damage, 100 = complete death
In short: as §3

[18] = test system: sicklepod (Cassia obtusifolia, CASOB); experiment: as above; details: rated 14 days after application, 0 = no damage, 100 = complete death
In short: as §3

[19] = test system: barnyardgrass (Echinochloa crus-galli, ECHCG); experiment: as above; details: rated 14 days after application, 0 = no damage, 100 = complete death
In short: as §3

[20] = test system: lambsquarters (Chenopodium album, CHEAL); experiment: as above; details: rated 14 days after application, 0 = no damage, 100 = complete death
In short: as §3

[21] = test system: ivyleaf morningglory (Ipomoea hederacea, IPOHE); experiment: as above; details: rated 14 days after application, 0 = no damage, 100 = complete death
In short: as §3

[22] = test system: johnsongrass (Sorghum halepense, SORHA); experiment: as above; details: rated 14 days after application, 0 = no damage, 100 = complete death
In short: as §3

[23] = test system: green foxtail (Setaria viridis, SETVI); experiment: as above; details: rated 14 days after application, 0 = no damage, 100 = complete death
In short: as §3

[24] = test system: large crabgrass (Digitaria sanguinalis, DIGSA); experiment: as above; details: rated 14 days after application, 0 = no damage, 100 = complete death
In short: as §3

In the case of `COc1c(Cl)cc(F)c(-n2c(=O)cc(C(F)(F)F)n(C)c2=O)c1NC(=O)c1ccccc1Cl` [2-53], the “Pre-emerge Herbicidal Activity, phytotoxicity rating (0-100), AMARE” value ([1]; 63 g ai/ha) is reported as 100, the “Pre-emerge Herbicidal Activity, phytotoxicity rating (0-100), AMARE” value ([1]; 250 g ai/ha) is reported as 100 and the “Pre-emerge phytotoxicity rating (0-100), crop damage, CORN” value ([2]; 63 g ai/ha) is reported as 25. For the same molecule, the “Pre-emerge phytotoxicity rating (0-100), crop damage, CORN” value ([2]; 250 g ai/ha) was 90, the “Pre-emerge phytotoxicity rating (0-100), crop damage, RICE” value ([3]; 63 g ai/ha) was 80 and the “Pre-emerge phytotoxicity rating (0-100), crop damage, RICE” value ([3]; 250 g ai/ha) was 90. The “phytotoxicity rating ABUTH” value ([4]; 63 g ai/ha) was 100, the “phytotoxicity rating ABUTH” value ([4]; 250 g ai/ha) was 100 and the “phytotoxicity rating AMBEL” value ([5]; 63 g ai/ha) was 70. The “phytotoxicity rating AMBEL” value ([5]; 250 g ai/ha) was 90, the “phytotoxicity rating CASOB” value ([6]; 63 g ai/ha) was 70 and the “phytotoxicity rating CASOB” value ([6]; 250 g ai/ha) was 100. For the same molecule, the “phytotoxicity rating ECHCG” value ([7]; 63 g ai/ha) was 0, the “phytotoxicity rating ECHCG” value ([7]; 250 g ai/ha) was 70 and the “phytotoxicity rating CHEAL” value ([8]; 63 g ai/ha) was 95. The “phytotoxicity rating CHEAL” value ([8]; 250 g ai/ha) was 100, the “phytotoxicity rating IPOHE” value ([9]; 63 g ai/ha) was 90 and the “phytotoxicity rating IPOHE” value ([9]; 250 g ai/ha) was 100. The “phytotoxicity rating SORHA” value ([10]; 63 g ai/ha) was 0, the “phytotoxicity rating SORHA” value ([10]; 250 g ai/ha) was 50 and the “phytotoxicity rating AMARE” value ([11]; 63 g ai/ha) was 90. The “phytotoxicity rating AMARE” value ([11]; 250 g ai/ha) was 100, the “phytotoxicity rating SETVI” value ([12]; 63 g ai/ha) was 20 and the “phytotoxicity rating SETVI” value ([12]; 250 g ai/ha) was 40. For the same molecule, the “phytotoxicity rating DIGSA” value ([13]; 63 g ai/ha) was 0, the “phytotoxicity rating DIGSA” value ([13]; 250 g ai/ha) was 20 and the “phytotoxicity rating CORN” value ([14]; 63 g ai/ha) was 10. The “phytotoxicity rating CORN” value ([14]; 250 g ai/ha) was 70, the “phytotoxicity rating RICE” value ([15]; 63 g ai/ha) was 30 and the “phytotoxicity rating RICE” value ([15]; 250 g ai/ha) was 70. The “Pre-emerge Herbicidal Activity, phytotoxicity rating (0-100), ABUTH” value ([16]; 63 g ai/ha) was 100, the “Pre-emerge Herbicidal Activity, phytotoxicity rating (0-100), ABUTH” value ([16]; 250 g ai/ha) was 100 and the “Pre-emerge Herbicidal Activity, phytotoxicity rating (0-100), AMBEL” value ([17]; 63 g ai/ha) was 80. For the same molecule, the “Pre-emerge Herbicidal Activity, phytotoxicity rating (0-100), AMBEL” value ([17]; 250 g ai/ha) was 100, the “Pre-emerge Herbicidal Activity, phytotoxicity rating (0-100), CASOB” value ([18]; 63 g ai/ha) was 95 and the “Pre-emerge Herbicidal Activity, phytotoxicity rating (0-100), CASOB” value ([18]; 250 g ai/ha) was 100. The “Pre-emerge Herbicidal Activity, phytotoxicity rating (0-100), ECHCG” value ([19]; 63 g ai/ha) was 40, the “Pre-emerge Herbicidal Activity, phytotoxicity rating (0-100), ECHCG” value ([19]; 250 g ai/ha) was 99 and the “Pre-emerge Herbicidal Activity, phytotoxicity rating (0-100), CHEAL” value ([20]; 63 g ai/ha) was 100. For the same molecule, the “Pre-emerge Herbicidal Activity, phytotoxicity rating (0-100), CHEAL” value ([20]; 250 g ai/ha) was 100, the “Pre-emerge Herbicidal Activity, phytotoxicity rating (0-100), IPOHE” value ([21]; 63 g ai/ha) was 100 and the “Pre-emerge Herbicidal Activity, phytotoxicity rating (0-100), IPOHE” value ([21]; 250 g ai/ha) was 100. The “Pre-emerge Herbicidal Activity, phytotoxicity rating (0-100), SORHA” value ([22]; 63 g ai/ha) was 40, the “Pre-emerge Herbicidal Activity, phytotoxicity rating (0-100), SORHA” value ([22]; 250 g ai/ha) was 100 and the “Pre-emerge Herbicidal Activity, phytotoxicity rating (0-100), SETVI” value ([23]; 63 g ai/ha) was 100. For the same molecule, the “Pre-emerge Herbicidal Activity, phytotoxicity rating (0-100), SETVI” value ([23]; 250 g ai/ha) was 100, the “Pre-emerge Herbicidal Activity, phytotoxicity rating (0-100), DIGSA” value ([24]; 63 g ai/ha) was 90 and the “Pre-emerge Herbicidal Activity, phytotoxicity rating (0-100), DIGSA” value ([24]; 250 g ai/ha) was 100.
